What all share (format): cell-based
One experiment relates to RSV A2. The experiment is described as follows: RSV NHBE EC50 (RSV A2 antiviral assay in normal human bronchial epithelial cells). The conditions noted are these: human respiratory syncytial virus, NHBE, 96 h, NHBE cells, RSV A2, 4 days; read-out: RSV NHBE EC50.
For the next experiment, the system named is RSV strain A2. The experiment can be described thus: RSV HEp-2 EC50 (infectious cytopathic cell protection assay). The settings on record: human respiratory syncytial virus, HEp-2, 96 h, HEp-2 cells, RSV A2, 4 days; read-out: RSV HEp-2 EC50. The procedure, abridged:
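HEp-2 cells mixed with titered RSV A2 at 50,000 cells/ml were added to plates holding 3-fold serial compound dilutions in DMSO, then incubated 4 days at 37° C. Cytoprotection was read as cell viability by CellTiter-Glo luminescence and converted to percent inhibition against 0% and 100% inhibition controls.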
(In general: Cytopathic effects are the visible damage that an infection or toxin causes in cultured cells.)

Another experiment has as its system HRV16. The experiment is described as follows: HRV16 HELA EC50 (cytopathic effect in H1-HeLa cells). The conditions noted are these: 96 h, H1-HeLa cells, 33° C., read-out: HRV16 HELA EC50. The protocol: H1-HeLa cells, cultured in complete DMEM medium containing 10% heat-inactivated FBS and 1% Penicillin/Streptomycin, were seeded in 96 well plates at 3000 cells/well one day prior to compound dosing and infection. The antiviral activity of each compound was measured in triplicate. Compounds were added directly to the cell cultures in serial 3-fold dilutions using the HP300 digital dispenser (Hewlett Packard, Palo Alto, CA) immediately prior to infection. The plates were transferred to BSL-2 containment and the appropriate dilution of virus stock, previously determined by titration and prepared in cell culture media, was added to test plates containing cells and serially diluted compounds. Each plate included 6 wells of infected untreated cells and 6 wells of uninfected cells that served as 0% and 100% virus inhibition control, respectively. Following the infection, test plates were incubated for 96 h in a tissue culture incubator set to 33° C./5% CO2. Following incubation, the H1-HeLa cells were removed from incubation and allowed to equilibrate to 25° C. Cell viability was determined by removing 100 μL of culture medium and adding 100 μL of Cell-Titer Glo viability reagent. The mixtures were incubated on a shaker for 10 minutes at 25° C., and the luminescence signal was quantified on an Envision luminescence plate reader.

A further experiment concerns DENV2 replicon. The experiment can be described thus: DENV-2 Huh-7 Rep EC50 (replicon luminescence). The settings on record: Dengue virus, DENV2, Huh-7, 48 h, Huh-7 replicon cells, 48 hours; read-out: DENV-2 Huh-7 Rep EC50. The protocol:
In 384 well plates (Greiner, Cat #781091), compounds were acoustically transferred at 200 nl per well in a 8 compound (4 replicates) or 40 compound dose response format (3 replicates). For all plates tested, Balapiravir, GS-5734 and NITD008 were included as positive inhibition controls alongside 0% inhibition, DMSO-only negative control wells. Following compound addition, Huh-7 cells containing the DENV2 replicon construct were harvested following standard cell culture procedures and were adjusted to a concentration of 1.25E5 cells/mL in cell culture media composed of cDMEM without genticin. 40 μL of the cell stock was then added to each well for a final cell density of 5,000 cells/well. Cell and compound mixtures were incubated at 37° C./5% CO2 for 48 hours. Prior to harvesting cells, EnduRen Live Cell Substrate (Promega, Cat #E6481) was prepared by suspending 3.4 mg into 100 uL of DMSO to generate a 60 mM stock solution. The stock solution was then diluted 1:200 in pre-warmed cDMEM and 10 uL of this diluted solution was added to each well of the 384 well plates. Plates were then centrifuged at 500 rpm briefly and were placed on a plate shaker for 2 min. Following mixing, plates were incubated at […] for 1.5 hours prior to measuring luminescence on an Envision luminometer.
Background: Replicon systems follow genome replication, usually without infectious particles.

For the molecule `CC(C)OC(=O)C1(NP(=O)(OC[C@@]2(C#N)O[C@@H](c3ccc4c(N)ncnn34)[C@H](O)[C@@H]2O)Oc2ccccc2)CCC1` (mixture of isomers) [Example 95, isopropyl 1-(((((2R,3S,4R,5S)-5-(4-aminopyrrolo[2,1-f][1,2,4]triazin-7-yl)-2-cyano-3,4-dihydroxytetrahydrofuran-2-yl)methoxy)(phenoxy)phosphoryl)amino)cyclobutanecarboxylate], the EC50 (commonly the concentration at which the effect is half-maximal) was above 5 µM in the experiment with RSV A2, 15.2 µM with RSV strain A2, above 42.2 µM in the experiment on HRV16 and above 50 µM in the experiment with DENV2 replicon.
Regarding `CCOC(=O)C1(NP(=O)(OC[C@@]2(C#N)O[C@@H](c3ccc4c(N)ncnn34)[C@H](O)[C@@H]2O)Oc2ccccc2)CC1` (mixture of isomers) [Example 106, ethyl 1-(((((2R,3S,4R,5S)-5-(4-aminopyrrolo[2,1-f][1,2,4]triazin-7-yl)-2-cyano-3,4-dihydroxytetrahydrofuran-2-yl)methoxy)(phenoxy)phosphoryl)amino)cyclopropanecarboxylate], the EC50 is above 5 µM in the experiment with RSV A2, above 42.5 µM in the experiment on RSV strain A2, above 100 µM in the experiment with HRV16 and above 100 µM in the experiment on DENV2 replicon.
In the case of `N#C[C@]1(COP(=O)(NCC(=O)OC2CCCC2)Oc2ccccc2)O[C@@H](c2ccc3c(N)ncnn23)[C@H](O)[C@@H]1O` (mixture of isomers) [Example 112, cyclopentyl 2-(((((2R,3S,4R,5S)-5-(4-aminopyrrolo[2,1-f][1,2,4]triazin-7-yl)-2-cyano-3,4-dihydroxytetrahydrofuran-2-yl)methoxy)(phenoxy)phosphoryl)amino)acetate], the 50% effective concentration (EC50) is 0.464 µM with RSV A2, 1.41 µM with RSV strain A2, 3.69 µM with HRV16 and above 50 µM with DENV2 replicon.
Take `CCC(CC)OC(=O)[C@H](CC)NP(=O)(OC[C@@]1(C#N)O[C@@H](c2ccc3c(N)ncnn23)[C@H](O)[C@@H]1O)Oc1ccccc1` (mixture of isomers) [Example 115, (2S)-pentan-3-yl 2-(((((2R,3S,4R,5S)-5-(4-aminopyrrolo[2,1-f][1,2,4]triazin-7-yl)-2-cyano-3,4-dihydroxytetrahydrofuran-2-yl)methoxy)(phenoxy)phosphoryl)amino)butanoate]: the EC50 in the experiment with RSV A2 was 1.55 µM; in the experiment on RSV strain A2, 8.66 µM; with HRV16, 10.3 µM; in the experiment with DENV2 replicon, above 50 µM.
In the case of `CC(C)C[C@H](NP(=O)(OC[C@@]1(C#N)O[C@@H](c2ccc3c(N)ncnn23)[C@H](O)[C@@H]1O)Oc1ccccc1)C(=O)OCC1CC1` (mixture of isomers) [Example 130, (2S)-cyclopropylmethyl 2-(((((2R,3S,4R,5S)-5-(4-aminopyrrolo[2,1-f][1,2,4]triazin-7-yl)-2-cyano-3,4-dihydroxytetrahydrofuran-2-yl)methoxy)(phenoxy)phosphoryl)amino)-4-methylpentanoate], the half-maximal effective concentration (EC50) with RSV A2 was 0.438 µM; with RSV strain A2, 3.59 µM; in the experiment with HRV16 it was 7.3 µM; in the experiment with DENV2 replicon, above 100 µM.
Turning to `C[C@H](NP(=O)(OC[C@@]1(C#N)O[C@@H](c2ccc3c(N)ncnn23)[C@H](O)[C@@H]1O)Oc1ccccc1)C(=O)O[C@@H]1CCNC1` (mixture of isomers) [Example 137, (2S)—(R)-pyrrolidin-3-yl 2-(((((2R,3S,4R,5S)-5-(4-aminopyrrolo[2,1-f][1,2,4]triazin-7-yl)-2-cyano-3,4-dihydroxytetrahydrofuran-2-yl)methoxy)(phenoxy)phosphoryl)amino)propanoate], the EC50 was above 5 µM with RSV A2, 3.69 µM with RSV strain A2, 27 µM in the experiment with HRV16 and above 50 µM in the experiment on DENV2 replicon.
`C[C@H](NP(=O)(OC[C@@]1(C#N)O[C@@H](c2ccc3c(N)ncnn23)[C@H](O)[C@@H]1O)Oc1ccccc1)C(=O)O[C@H]1CC[C@H](C)CC1` (mixture of isomers) [Example 142, (2S)-(1r,4S)-4-methylcyclohexyl 2-(((((2R,3S,4R,5S)-5-(4-aminopyrrolo[2,1-f][1,2,4]triazin-7-yl)-2-cyano-3,4-dihydroxytetrahydrofuran-2-yl)methoxy)(phenoxy)phosphoryl)amino)propanoate]: the EC50 with RSV A2 stood at 0.061 µM; in the experiment on RSV strain A2, 0.251 µM; in the experiment on HRV16, 0.164 µM; in the experiment on DENV2 replicon, 12.2 µM.
For the molecule `C[C@H](NP(=O)(OC[C@@]1(C#N)O[C@@H](c2ccc3c(N)ncnn23)[C@H](O)[C@@H]1O)Oc1ccccc1)C(=O)OC1CCNCC1` (mixture of isomers) [Example 145, (2S)-piperidin-4-yl 2-(((((2R,3S,4R,5S)-5-(4-aminopyrrolo[2,1-f][1,2,4]triazin-7-yl)-2-cyano-3,4-dihydroxytetrahydrofuran-2-yl)methoxy)(phenoxy)phosphoryl)amino)propanoate], the EC50 in the experiment on RSV A2 is above 5 µM; in the experiment on RSV strain A2 it was 2.9 µM; in the experiment on HRV16, 46.2 µM; in the experiment with DENV2 replicon, above 100 µM.
In the case of `CC(NP(=O)(OC[C@@]1(C#N)O[C@@H](c2ccc3c(N)ncnn23)[C@H](O)[C@@H]1O)Oc1ccccc1)C(=O)O[C@H]1CCNC1=O` (mixture of isomers) [Example 153, (S)-2-oxopyrrolidin-3-yl ((((2R,3S,4R,5S)-5-(4-aminopyrrolo[2,1-f][1,2,4]triazin-7-yl)-2-cyano-3,4-dihydroxytetrahydrofuran-2-yl)methoxy)(phenoxy)phosphoryl)alaninate], the concentration for a half-maximal effect (EC50) in the experiment on RSV A2 is above 5 µM; with RSV strain A2, 7.14 µM; with HRV16, 12.5 µM; with DENV2 replicon, above 100 µM.
For `C[C@H](NP(=O)(OC[C@@]1(C#N)O[C@@H](c2ccc3c(N)ncnn23)[C@H](O)[C@@H]1O)Oc1ccccc1)C(=O)OC1CCCC(C)(C)C1` (mixture of isomers) [Example 154, 3,3-dimethylcyclohexyl ((((2R,3S,4R,5S)-5-(4-aminopyrrolo[2,1-f][1,2,4]triazin-7-yl)-2-cyano-3,4-dihydroxytetrahydrofuran-2-yl)methoxy)(phenoxy)phosphoryl)-L-alaninate], the EC50 in the experiment with RSV A2 turned out to be 0.311 µM; with RSV strain A2 it was 2.7 µM; in the experiment on HRV16 it was 1.95 µM; in the experiment with DENV2 replicon, 50.7 µM.
Regarding `C[C@H](NP(=O)(OC[C@@]1(C#N)O[C@@H](c2ccc3c(N)ncnn23)[C@H](O)[C@@H]1O)Oc1ccccc1)C(=O)O[C@H]1CCCC[C@@H]1C` (mixture of isomers) [Example 155, trans-2-methylcyclohexyl ((((2R,3S,4R,5S)-5-(4-aminopyrrolo[2,1-f][1,2,4]triazin-7-yl)-2-cyano-3,4-dihydroxytetrahydrofuran-2-yl)methoxy)(phenoxy)phosphoryl)-L-alaninate], the half-maximal effective concentration (EC50) came out at 1.58 µM with RSV A2, 4.32 µM in the experiment on RSV strain A2, 4.2 µM in the experiment on HRV16 and 84.4 µM with DENV2 replicon.
The matching figures for `C[C@H](NP(=O)(OC[C@@]1(C#N)O[C@@H](c2ccc3c(N)ncnn23)[C@H](O)[C@@H]1O)Oc1ccccc1)C(=O)OC1CCC(F)(F)CC1` (mixture of isomers) [Example 174, 4,4-difluorocyclohexyl ((((2R,3S,4R,5S)-5-(4-aminopyrrolo[2,1-f][1,2,4]triazin-7-yl)-2-cyano-3,4-dihydroxytetrahydrofuran-2-yl)methoxy)(phenoxy)phosphoryl)-L-alaninate]: 1.39 µM, 0.257 µM, 0.748 µM and 33.8 µM.

The values are drawn from US20230295201A1 (Gilead Sciences, Inc., priority 2020, published 2023).
